# From patent US8518678B2, “Strain comprising increased expression of a CFA coding region for butanol production” (Butamax(TM) Advanced Biofuels LLC, priority 2007, dated 2013)
# Where two headings read alike, the source gives them in different places.
# Tests used:
# [1] = test system: Lactobacillus plantarum PN2014; settings: shake flask; for PN2014, % Growth inhibition: semi-synthetic LAB medium pH7; for PN2014 (control plasmid) μ: semi-synthetic LAB medium pH7, 30° C
# [2] = test system: Lactobacillus plantarum PN2001; settings: shake flask; for PN2001, % Growth inhibition: semi-synthetic LAB medium pH7; for PN2001 (cfa1 plasmid) μ: semi-synthetic LAB medium pH7, 30° C
# [3] = test system: butanol non-producing bacterial cells; assay: Feeding with fatty acids followed by screening for butanol tolerance; assay type: cell-based; settings: fed to cells; among about ten different fatty acids tested
# From the text: The discovery came from results of studies on feeding butanol non-producing bacterial cells with different fatty acids followed by screening for butanol tolerance.
# [4] = test system: L. plantarum PN2001; assay: Bioscreen-C growth analysis in MRS medium, PN2001 (cfa1); assay type: cell-based, Lactobacillus plantarum; settings: strain PN2001 (cfa1)
# Description: (§1) For Bioscreen-C (instrument purchased from Growth Curves USA, Piscataway N.J.) growth curves, the cultures were grown overnight in MRS medium containing 1 μg/ml erythromycin at 30° C. The next day, these were diluted to OD600 of 0.1 in the wells of the Bioscreen plate with MRS medium containing 1 μg/ml erythromycin and either 2.25% (w/v) isobutanol or no isobutanol at 30° C.
# (§2) L. plantarum strains PN2001, PN2003, PN2005, PN2010, PN2012, and PN2014 were tested for growth in a Bioscreen-C growth curve machine in the presence of isobutanol as described in General Methods. These growth assays were conducted in MRS medium, which contains 1 g/L polysorbate 80 (commercially also known as Tween® 80) that serves as a source of oleic acid. Erythromycin at 1 μg/ml was added to the medium to maintain the plasmids. It is well known that L. plantarum grown in MRS medium incorporates oleic acid into membrane lipids (Johnsson et al. (1995) Appl. Environ. Microbiol. 61:4497-4499).
# [5] = test system: E. coli strain DPD4658; assay: Bioscreen-C growth in LB medium, DPD4658 (control lacZ overexpression); assay type: cell-based; settings: 3 hour and 15 minute time point; for OD600 (+/− st dev): LB medium, 37° C
# Description: (§3) E. coli strains DPD4655 and DPD4658 were grown overnight in LB medium containing 100 μg/ml ampicillin at 37° C. The next day, these were diluted to OD600 of 0.1 in the wells of a Bioscreen-C plate (instrument and plates purchased from Growth Curves USA, Piscataway N.J.) with LB medium and either 0.4%, 0.8% (w/v) isobutanol or no isobutanol at 37° C. in triplicate. OD was monitored and the OD at the 3 hour and 15 minute time point was used to calculate the % of growth in the presence of isobutanol as compared with its absence, given in Table 15.
# [6] = test system: L. plantarum PN2010; assay: Bioscreen-C growth analysis in MRS medium, PN2010 (cfa2); assay type: cell-based, Lactobacillus plantarum; settings: strain PN2010 (cfa2)
# Description: as §1, §2
# [7] = test system: L. plantarum PN2012; assay: Bioscreen-C growth analysis in MRS medium, PN2012 (control); assay type: cell-based, Lactobacillus plantarum; settings: strain PN2012 (no gene on plasmid)
# Description: as §1, §2
# [8] = test system: L. plantarum PN2005; assay: Bioscreen-C growth analysis in MRS medium, PN2005 (cfa2); assay type: cell-based, Lactobacillus plantarum; settings: strain PN2005 (cfa2)
# Description: as §1, §2
# [9] = test system: E. coli strain DPD4655; assay: Bioscreen-C growth in LB medium, DPD4655 (cfa overexpression); assay type: cell-based; settings: 3 hour and 15 minute time point; for OD600 (+/− st dev): LB medium, 37° C
# Description: as §3
# [10] = test system: Lactobacillus plantarum PN1310; assay: Change in OD600 in S36 medium, PN1310 (spoT mutant, vector); assay type: cell-based; settings: 3% isobutanol
# From the text: (§4) The purpose of this Example was to test the effect of a combination of cfa1 overexpression and spoT mutation on the isobutanol tolerance of Lactobacillus plantarum. To create a strain with both gene modifications, pFP996-atpB-cfa1 (described in Example 1; also called pFP996-1)) was transformed into the MS0280 strain (described in Example 4; also called PN1300) creating strain PN1312. For a control strain, pFP996 (described in Example 1) was transformed into MS0280 creating PN1310. Strain PN1312, which contained a multicopy expression plasmid with cfa1, was compared to strain PN1310, which contained the vector control.
# (§5) The growth of the strains over time was followed, and tolerance compared as follows. The strains were cultured in S36 medium (contains 10 mM ammonium sulfate, 5 mM potassium phosphate buffer, pH 6.0, 50 mM MES, pH 6.0, 2 mM MgCl2, 0.7 mM CaCl2, 50 μM MnCl2, 1 μM FeCl3, 1 μM ZnCl2, 1.72 μM CuCl2, 2.53 μM CoCl2, 2.42 μM Na2MoO4, 2 μM thiamine hydrochloride, 0.01 M glucose, 0.2% yeast extract and 0.01% casamino acids) overnight at 30° C. under anaerobic conditions. The next day, cultures were started from the overnight cultures in fresh medium, with initial OD600 values of 0.18. These cultures were incubated at 30° C. under anaerobic conditions for 4 hours. During this time, PN1310 reached an OD600 of 0.83, and PN1312 reach an OD600 of 0.61. […]
# [11] = test system: Lactobacillus plantarum PN1312; assay: Change in OD600 in S36 medium, PN1312 (spoT mutant, cfa1); assay type: cell-based; settings: 3% isobutanol
# From the text: as §4, §5
# [12] = test system: Lactobacillus plantarum PN2001; assay: microbe, parasite or virus in culture; settings: Lactiplantibacillus plantarum, PN2001, pH 7, read-out: PN2001, % Growth inhibition
# [13] = test system: Lactobacillus plantarum PN2014; assay: microbe, parasite or virus in culture; settings: Lactiplantibacillus plantarum, PN2014, pH 7, read-out: PN2014, % Growth inhibition
# [14] = test system: L. plantarum PN2014; assay: Bioscreen-C growth analysis in MRS medium, PN2014 (control); assay type: cell-based, Lactobacillus plantarum; settings: strain PN2014 (no gene on plasmid)
# Description: as §1, §2
# [15] = test system: L. plantarum PN2003; assay: Bioscreen-C growth analysis in MRS medium, PN2003 (cfa1); assay type: cell-based, Lactobacillus plantarum; settings: strain PN2003 (cfa1), 2.25% isobutanol
# Description: as §1, §2
# [16] = MRS medium (source of oleic acid), 30° C
compound,measurement,setting,value
CCC(C)O (stereo not shown) [2-butanol],"PN2014, % Growth inhibition",[1]; 2-butanol 3.5% w/v,48%
same,PN2014 (control plasmid) μ,[1]; 2-butanol 3.5% w/v,0.153 h⁻¹
same,"PN2014, % Growth inhibition",[1]; 2-butanol 4.0% w/v,59%
same,PN2014 (control plasmid) μ,[1]; 2-butanol 4.0% w/v,0.123 h⁻¹
same,"PN2014, % Growth inhibition",[1]; 2-butanol 4.25% w/v,47%
same,PN2014 (control plasmid) μ,[1]; 2-butanol 4.25% w/v,0.158 h⁻¹
same,"PN2014, % Growth inhibition",[1]; 2-butanol 4.5% w/v,79%
same,PN2014 (control plasmid) μ,[1]; 2-butanol 4.5% w/v,0.061 h⁻¹
same,"PN2014, % Growth inhibition",[1]; 2-butanol 4.75% w/v,89%
same,PN2014 (control plasmid) μ,[1]; 2-butanol 4.75% w/v,0.034 h⁻¹
same,"PN2014, % Growth inhibition",[1]; 2-butanol 5.0% w/v,100%
same,PN2014 (control plasmid) μ,[1]; 2-butanol 5.0% w/v,0.00 h⁻¹
same,"PN2001, % Growth inhibition",[2]; 2-butanol 3.5% w/v,54%
same,PN2001 (cfa1 plasmid) μ,[2]; 2-butanol 3.5% w/v,0.132 h⁻¹
same,"PN2001, % Growth inhibition",[2]; 2-butanol 4.0% w/v,56%
same,PN2001 (cfa1 plasmid) μ,[2]; 2-butanol 4.0% w/v,0.125 h⁻¹
same,"PN2001, % Growth inhibition",[2]; 2-butanol 4.25% w/v,61%
same,PN2001 (cfa1 plasmid) μ,[2]; 2-butanol 4.25% w/v,0.111 h⁻¹
same,"PN2001, % Growth inhibition",[2]; 2-butanol 4.5% w/v,62%
same,PN2001 (cfa1 plasmid) μ,[2]; 2-butanol 4.5% w/v,0.108 h⁻¹
same,"PN2001, % Growth inhibition",[2]; 2-butanol 4.75% w/v,76%
same,PN2001 (cfa1 plasmid) μ,[2]; 2-butanol 4.75% w/v,0.068 h⁻¹
same,"PN2001, % Growth inhibition",[2]; 2-butanol 5.0% w/v,73%
same,PN2001 (cfa1 plasmid) μ,[2]; 2-butanol 5.0% w/v,0.078 h⁻¹
CCCCCCCC[C@@H]1C[C@@H]1CCCCCCCC(=O)O [dihydrosterculic acid],effect of feeding on butanol tolerance,[3],increased butanol tolerance
CC(C)CO [isobutanol],% Growth inhibition,"[4]; 2.25% isobutanol, MRS medium",32%
same,μ (2.25% isobutanol),[4]; [16],0.32 h⁻¹
same,growth in the presence of isobutanol (FIG. 1B),"[1]; PN2014, 3% isobutanol",did not grow
same,PN2014 (control plasmid) μ,[1]; isobutanol 2.25% w/v,0.170 h⁻¹
same,PN2014 (control plasmid) μ,[1]; isobutanol 2.5% w/v,0.118 h⁻¹
same,PN2014 (control plasmid) μ,[1]; isobutanol 2.75% w/v,0.037 h⁻¹
same,PN2014 (control plasmid) μ,[1]; isobutanol 3.0% w/v,0.00 h⁻¹
same,PN2014 (control plasmid) μ,[1]; isobutanol 3.2% w/v,0.00 h⁻¹
same,% OD +isobutanol/−isobutanol,[5]; isobutanol 0.4% (w/v),63%
same,OD600 (+/− st dev),[5]; isobutanol 0.4% (w/v),0.259 +/− 0.004
same,% OD +isobutanol/−isobutanol,[5]; isobutanol 0.8% (w/v),42%
same,OD600 (+/− st dev),[5]; isobutanol 0.8% (w/v),0.174 +/− 0.011
same,% Growth inhibition,"[6]; 2.25% isobutanol, MRS medium",39%
same,μ (2.25% isobutanol),[6]; [16],0.33 h⁻¹
same,% Growth inhibition,"[7]; 2.25% isobutanol, MRS medium",51%
same,μ (2.25% isobutanol),[7]; [16],0.20 h⁻¹
same,% Growth inhibition,"[8]; 2.25% isobutanol, MRS medium",39%
same,μ (2.25% isobutanol),[8]; [16],0.31 h⁻¹
same,% OD +isobutanol/−isobutanol,[9]; isobutanol 0.4% (w/v),72%
same,OD600 (+/− st dev),[9]; isobutanol 0.4% (w/v),0.318 +/− 0.005
same,% OD +isobutanol/−isobutanol,[9]; isobutanol 0.8% (w/v),50%
same,OD600 (+/− st dev),[9]; isobutanol 0.8% (w/v),0.220 +/− 0.006
same,inhibited for growth,[10]; PN1310 (vector alone),75%
same,2 h Δ OD,"[10]; PN1310 (vector), S36 medium, 30° C, anaerobic",0.3
same,2 h Δ OD,"[11]; PN1312 (cfa1), S36 medium, 30° C, anaerobic",0.5
same,inhibited for growth,[11]; PN1312 (cfa1 overexpression),59%
same,inhibition at 2.25 % strength,[12],46%
same,inhibition at 2.5 % strength,[12],66%
same,inhibition at 2.75 % strength,[12],70%
same,inhibition at 3 % strength,[12],92%
same,inhibition at 3.2 % strength,[12],100%
same,inhibition at 2.25 % strength,[13],50%
same,inhibition at 2.5 % strength,[13],66%
same,inhibition at 2.75 % strength,[13],89%
same,inhibition at 3 % strength,[13],100%
same,inhibition at 3.2 % strength,[13],100%
same,growth in the presence of isobutanol (FIG. 1A),"[2]; PN2001, 3% isobutanol",grew
same,PN2001 (cfa1 plasmid) μ,[2]; isobutanol 2.25% w/v,0.187 h⁻¹
same,PN2001 (cfa1 plasmid) μ,[2]; isobutanol 2.5% w/v,0.119 h⁻¹
same,PN2001 (cfa1 plasmid) μ,[2]; isobutanol 2.75% w/v,0.104 h⁻¹
same,PN2001 (cfa1 plasmid) μ,[2]; isobutanol 3.0% w/v,0.029 h⁻¹
same,PN2001 (cfa1 plasmid) μ,[2]; isobutanol 3.2% w/v,0.00 h⁻¹
same,% Growth inhibition,"[14]; 2.25% isobutanol, MRS medium",42%
same,μ (2.25% isobutanol),[14]; [16],0.22 h⁻¹
same,% Growth inhibition,[15],34%
